This assay has as its target T1, Dopamine (DA) sensitive adenylate cyclase (Rattus norvegicus, UniProt P18901).
T1 construct: homogenates of rat corpus striatum; from tissue; host or cells: rat corpus striatum homogenate
Put plainly: Stimulation of formation of cyclic AMP in rat striatal homogenate. The assay is classed as biochemical. The source says:
assayed in homogenates of corpus striatum obtained from rat brain. The
method of assay of the activity of DAsensitive adenylate cyclase by the
rate of formation of cAMP above a basal (no agonist) level is described
under Experimental Section. The data are mean values of cAMP levels in […]

[1] abbreviates: 2.5 min, read-out: cAMP production, % of control.

Counter-ions that a name gives are not always drawn.

T1 sequence (P18901 whole entry): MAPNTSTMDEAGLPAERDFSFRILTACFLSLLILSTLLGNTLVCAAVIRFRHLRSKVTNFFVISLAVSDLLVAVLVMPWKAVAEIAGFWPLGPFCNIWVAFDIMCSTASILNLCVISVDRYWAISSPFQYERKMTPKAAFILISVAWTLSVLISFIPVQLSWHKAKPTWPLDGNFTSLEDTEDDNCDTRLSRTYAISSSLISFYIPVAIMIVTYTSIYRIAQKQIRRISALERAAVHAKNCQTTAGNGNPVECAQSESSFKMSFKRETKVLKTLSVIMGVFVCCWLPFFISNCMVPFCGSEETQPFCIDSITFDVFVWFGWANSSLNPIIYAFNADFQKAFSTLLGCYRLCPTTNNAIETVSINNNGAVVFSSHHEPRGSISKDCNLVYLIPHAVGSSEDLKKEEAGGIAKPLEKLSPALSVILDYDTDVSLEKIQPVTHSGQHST

Take `CCCN1CCc2cccc3c2[C@@H]1Cc1ccc(O)c(O)c1-3` [(+)NPA, (S)-N-n-Propylnorapomorphine Hydrochloride]: the cAMP production (10 μM) amounted to 2.95 ± 0.19 picomoles per 2.5 min. The same molecule came in with a cAMP production (100 μM) of 3.19 ± 0.16 picomoles per 2.5 min. Under setting [1], the cAMP formation, % of control at 10 µM stood at 119% and the cAMP formation, % of control at 100 µM was found to be 129%.

Source of the values: patent US4687773A, “(+)-N-N-propylnorapomorphine and selective limbic activity” (priority 1985, dated 1987).
